Experiments:
Assay type in all cases: physicochemical
[1] = Thermodynamic solubility in water at pH 4.2; details: for Observations at T = 24 hours: 30 mg/mL in water at pH 4.2, agitated at ambient temperature ca. 24 hours; for Observations at T = 0 hours: 30 mg/mL in water at pH 4.2, ambient temperature
Protocol: Thermodynamic solubility was carried out for Pattern 1, Pattern 2/6 mixture, Pattern 3, amorphous di-HCl salts and Pattern 7 in water at pH 4.2. All samples were prepared at 30 mg/mL. Initial observations were made. The samples were agitated at ambient temperature for ca. 24 hours. The samples were collected and observations made. Observed solids were isolated via centrifugation. The mother liquor from the filtered sample was analyzed by HPLC. The pH 4.3 solution was prepared by diluting glacial acetic acid (11.6 mL) to 100 mL in deionized water, then adding sodium acetate (1.07 g) and acetic acid solution (5.9 mL) preparing up to 500 mL with deionized water; then the pH was adjusted to 4.2. The above technique was used to generate the images in FIG. 60.

[2] = Solvent solubility screen (approximate solubility)
Protocol: The solvent solubility experiment was carried out using various solvents to determine solid formation. A known volume aliquot (typically 5 volumes) of solvent was added to approximately 10 mg of amorphous Compound 1 as a dihydrochloride. Between each addition, the mixture was checked for dissolution and where no dissolution was apparent, the mixture was heated to ca. 40° C. and checked again. This procedure was continued until dissolution was observed or until 100 volumes of solvent had been added. All observed solids were isolated and analyzed by XRPD.
Examples of solvents include, but are not limited to, 1,4 dioxane, methanol, ethanol, propanol, butanol, butanone, ethoxyethanol, trifluoroethanol, methyl-THF, acetone, acetonitrile, anisole, chlorobenzene, DMSO, DMF, cumene, dichloromethane, ethyl acetate, ethylene glycol, heptane, isopropyl acetate, nitromethane, n-methylpyrrolidone, MIBK, t-BME, tetrahydrofuran, toluene, water and mixtures thereof. The above technique was used to generate the images in FIG. 8, FIG. 9, FIG. 10, FIG. 11, FIG. 12, FIG. 14.

[3] = Solubility of trilaciclib (general statement)

## CN1CCN(c2ccc(Nc3ncc4cc5n(c4n3)C3(CCCCC3)CNC5=O)nc2)CC1 [Pattern 7, 2′-((5-(4-methylpiperazin-1-yl)pyridin-2-yl)amino)-7′,8′-dihydro-6′H-spiro[cyclohexane-1,9′-pyrazino[1′,2′:1,5]pyrrolo[2,3-d]pyrimidin]-6′-one]
[1]
  Observations at T = 24 hours: Off-white slurry
  Observations at T = 0 hours: Off-white slurry

## CN1CCN(c2ccc(Nc3ncc4cc5n(c4n3)C3(CCCCC3)CNC5=O)nc2)CC1.Cl.Cl [Amorphous Di-HCl]
[2]; 1,4-Dioxane, heated to ca. 40° C. where no dissolution
  Approx. Solubility: <5 mg/mL
[2]; 1-Butanol, heated to ca. 40° C. where no dissolution
  Approx. Solubility: <5 mg/mL
[2]; 2,2,2-Trifluoroethanol
  Approx. Solubility: >200 mg/mL
[2]; 2-Butanone, heated to ca. 40° C. where no dissolution
  Approx. Solubility: <5 mg/mL
[2]; 2-Ethoxyethanol, heated to ca. 40° C. where no dissolution
  Approx. Solubility: <5 mg/mL
[2]; 2-Methyl THF, heated to ca. 40° C. where no dissolution
  Approx. Solubility: <5 mg/mL
[2]; 2-Propanol, heated to ca. 40° C. where no dissolution
  Approx. Solubility: ca 5 mg/mL
[2]; Acetone, heated to ca. 40° C. where no dissolution
  Approx. Solubility: <5 mg/mL
[2]; Acetonitrile/water (90:10% v/v), heated to ca. 40° C. where no dissolution
  Approx. Solubility: <5 mg/mL
[2]; Acetonitrile, heated to ca. 40° C. where no dissolution
  Approx. Solubility: <5 mg/mL
[2]; Anisole, heated to ca. 40° C. where no dissolution
  Approx. Solubility: <5 mg/mL
[2]; Chlorobenzene, heated to ca. 40° C. where no dissolution
  Approx. Solubility: <5 mg/mL
[2]; Cumene, heated to ca. 40° C. where no dissolution
  Approx. Solubility: ca 5 mg/mL
[2]; DMF, heated to ca. 40° C. where no dissolution
  Approx. Solubility: <5 mg/mL
[2]; DMSO, heated to ca. 40° C. where no dissolution
  Approx. Solubility: ca 5 mg/mL
[2]; Deionized Water
  Approx. Solubility: >200 mg/mL
[2]; Dichloromethane, heated to ca. 40° C. where no dissolution
  Approx. Solubility: <5 mg/mL
[2]; Ethanol/water (85:15% v/v), heated to ca. 40° C. where no dissolution
  Approx. Solubility: <5 mg/mL
[2]; Ethanol, heated to ca. 40° C. where no dissolution
  Approx. Solubility: ca 5 mg/mL
[2]; Ethyl Acetate, heated to ca. 40° C. where no dissolution
  Approx. Solubility: <5 mg/mL
[2]; Ethylene glycol
  Approx. Solubility: 50 mg/mL
[2]; Heptane, heated to ca. 40° C. where no dissolution
  Approx. Solubility: <5 mg/mL
[2]; Isopropyl acetate, heated to ca. 40° C. where no dissolution
  Approx. Solubility: <5 mg/mL
[2]; Methanol/water (95:5% v/v)
  Approx. Solubility: 20 mg/mL
[2]; Methanol, heated to ca. 40° C. where no dissolution
  Approx. Solubility: ca 5 mg/mL
[2]; Methyl isobutyl ketone, heated to ca. 40° C. where no dissolution
  Approx. Solubility: <5 mg/mL
[2]; N-Methylpyrrolidone, heated to ca. 40° C. where no dissolution
  Approx. Solubility: <5 mg/mL
[2]; Nitromethane
  Approx. Solubility: 33 mg/mL
[2]; Tetrahydrofuran/water (99:1% v/v), heated to ca. 40° C. where no dissolution
  Approx. Solubility: <5 mg/mL
[2]; Tetrahydrofuran, heated to ca. 40° C. where no dissolution
  Approx. Solubility: <5 mg/mL
[2]; Toluene, heated to ca. 40° C. where no dissolution
  Approx. Solubility: <5 mg/mL
[2]; t-Butylmethyl ether, heated to ca. 40° C. where no dissolution
  Approx. Solubility: <5 mg/mL
[1]
  Observations at T = 24 hours: Yellow solution
  Observations at T = 0 hours: Yellow solution (dissolved

## CN1CCN(c2ccc(Nc3ncc4cc5n(c4n3)C3(CCCCC3)CNC5=O)nc2)CC1 [trilaciclib, 2′-((5-(4-methylpiperazin-1-yl)pyridin-2-yl)amino)-7′,8′-dihydro-6′H-spiro[cyclohexane-1,9′-pyrazino[1′,2′:1,5]pyrrolo[2,3-d]pyrimidin]-6′-one]
[3]; DMSO
  solubility in DMSO: practically insoluble
[3]; water
  solubility in water: not very soluble

— US12534472B2, “Morphic forms of trilaciclib and methods of manufacture thereof” (Pharmacosmos Holding A/S, priority 2020, dated 2026)
